# Source: patent US20240327427A1, “NEW COMPOUNDS FOR THE TREATMENT OF ALZHEIMER'S DISEASE” (Icahn School of Medicine at Mount Sinai, priority 2020, published 2024)
# Assays:
# ATP6V1A = ATP6V1A mRNA expression in drug-treated NPCs (LINCS profiles); assay type: cell-based, human; conditions: drug-treated vs DMSO-treated, LINCS data
# Source text: Compounds were screened for drugs that can rescue the in vitro and in vivo phenotypes arising from ATP6V1A deficits. Using their drug repositioning tool, Ensemble of Multiple Drug Repositioning Approaches (EMUDRA) (Zhou et al., 2018b), the inventors matched the disease signature from the BM36-PHG region and the signatures of 3,629 drugs tested in the NPCs in the Library of Integrated Network-based Cellular Signatures (LINCS) project (FIG. 6A). The inventors further prioritized candidate drugs by their potential to increase the mRNA expression of ATP6V1A in the NPCs.
# To identify existing drugs that can restore the molecular expression change in the LOAD brains, the inventors performed a drug repositioning analysis using EMUDRA, which provides a novel computational algorithm to match disease signatures and drug-induced signatures. The inventors downloaded drug-treated gene expression profiles (level 3 data of quantile-normalized and log 2 transformed expression levels from human iPSC-derived neural progenitor cells (NPCs) from the Library of Integrated Network-Based Cellular Signatures (LINCS) program. After removing probes sets mapping to multiple genes or without known gene annotation, the remaining data were adjusted for batch effects using linear regression. The mean expression level of multiple probe sets that match to the same gene was used as the expression level for that gene. For each drug, the applied drug signature was the transcriptome-wide expression difference between drug-treated and DMSO-treated gene expression profiles. The inventors matched each of the drug signatures to the LOAD signature using EMUDRA to find drugs that could reverse the LOAD signature. […] In total, 3,629 drug signatures were analyzed and ranked. The inventors further prioritized the top-ranked drugs that can increase ATP6V1A mRNA expression in the NPCs.
# [1] = test system: SYN1, SCL17A7/VGLUT, PSD95, HOMER1; assay: Synaptic marker mRNA and protein levels in iNs; assay type: cell-based, human
# Experimental: Quantitative reverse transcription PCR (qRT-PCR) was performed as previously described. Specifically, cell cultures were harvested with Trizol and total RNA extraction was carried out following the manufacturer's instructions. Quantitative transcript analysis was performed using a QuantStudio 7 Flex Real-Time PCR System with the Power SYBR Green RNA-to-Ct Real-Time qPCR Kit (all Thermo Fisher Scientific). Total RNA template (25 ng per reaction) was added to the PCR mix, including primers listed below. qPCR conditions were as follows; 48° C. for 30 min, 95° C. for 10 min followed by 40 cycles (95° C. for 15 s, 60° C. for 60 s). All qPCR data is collected from at least 3 independent biological replicates of one experiment. Data analyses were performed using GraphPad PRISM 6 software.
# Images were captured and quantified using the Odyssey® Imaging Systems (LI-COR. Inc.).
# [2] = test system: hiPSC-derived NGN2 neurons; assay: Multi-electrode array (MEA) neuronal activity; assay type: cell-based, human; conditions: 3 μM NCH-51
# Experimental: To evaluate electrical activity of NGN2-neurons by MEA, density-matched isogenic NGN2-neuronal populations, co-cultured with pHAs, were prepared as described above. Specifically, at day 3, pHAs were split as 17,000 cells/well in a Matrigel-coated 48W MEA plate (Axion Biosystems, M768-tMEA-48W) and maintained as above. At day 7, NGN2-neurons were detached, spun down and seeded on the pHA culture. Outer space of each well in the plate was filled up with autoclaved/deionized water to minimize the evaporation of marginal wells (“edge effect”) during long-term culture. Half volume of neuronal medium (supplemented with 2% FBS) was replaced with fresh medium including 200 nM Ara-C from day 9 until the end of MEA recording. Electrical activity of neurons was recorded daily during day 14-24. On the recording day, the plate was loaded into the Axion Maestro MEA reader (Axion Biosystems). Recording was performed via AxiS 2.4 for 10 mins. Quantitative analysis of the recording was exported as a Microsoft excel sheet. Data were analyzed using GraphPad PRISM 6 software.
# A stock solution of LQ081-166 (molecular weight: 452.63) at 3 mM is prepared in dimethyl sulfoxide (DMSO). Once prepared, aliquot the stock solution into 100 μL amounts and store at −80° C. Avoid repeated freeze-thaw cycles. The stock is diluted 1000× into neuronal medium to obtain 3 μM for assays. After 24-hour treatment, RNA was extracted from cells for quantitative PCR. In the MEA assay, LQ081-166 was added on neuronal differentiation day 14. Replace with medium containing drug or vehicle every 2-3 days until the final recording day.
# Aβ42 = Aβ42 levels in fly brains (western blot); assay type: in vivo, Drosophila; conditions: Aβ42 flies, fed
# Experimental: Aβ42 flies were treated with 0, 10, or 50 μM of NCH-51 during aging to examine its effects on neurodegeneration. […] Western blotting was performed as described previously. To detect human Aβ42, ten fly heads for each genotype were homogenized in Tris-Glycine SDS sample buffer, and the same amount of the lysate was loaded to 18% Tris-Glycine gels and transferred to nitrocellulose membrane. The membranes were boiled in PBS for 3 min, blocked with 5% nonfat dry milk, blotted with the anti-AD 6E10 antibody (Signet, Covance), incubated with appropriate secondary antibody and developed using ECL Western Blotting Detection Reagents (GE Healthcare Life Sciences). The membranes were also probed with anti-tubulin (Sigma-Aldrich) as the loading control in each experiment. To detect human tau, ten fly heads for each genotype were homogenized in Tris-Glycine SDS sample buffer, and the same amount of the lysate was loaded to each lane of 10% Tris-Glycine gels and transferred to nitrocellulose membrane. The membranes were blocked with 5% nonfat dry milk, blotted with the antibodies described below, incubated with the appropriate secondary antibody and developed using ECL Prime Western Blotting Detection Reagent (GE Healthcare Life Sciences). […] Imaging was performed with ImageQuant LAS 4000 (GE Healthcare Life Sciences), and the signal intensity was quantified using Image J (NIH).
structure (smiles),measurement,setting,value
CC(C)C(=O)SCCCCCCC(=O)Nc1nc(-c2ccccc2)cs1 [NCH-51],ATP6V1A (log2FC),ATP6V1A,0.71 log2FC
same,SCL17A7 mRNA level,"[1]; 3 μM, 24-hr, iNs, P<0.001",dramatically elevates
same,presynaptic SYN1 mRNA level,"[1]; 3 μM, 24-hr, iNs, P<0.001",dramatically elevates
same,HOMER1 levels,[1]; ATP6V1A KD iNs or isogenic controls,increased the HOMER1 levels
same,postsynaptic PSD95,[1]; iNs,no effect
same,SYN1 protein level,"[1]; iNs, 3 μM, P<0.01",similarly increased
same,VGLUT protein level,"[1]; iNs, 3 μM, P<0.05",similarly increased
same,restoration of neuronal activity (MEA),[2]; ATP6V1A KD iNs,partially restoring neuronal activity
same,neuronal activity (MEA spike events),[2]; iNs,potent activator of neuronal activity
same,Aβ42 levels in fly brains,Aβ42,did not affect
